According to patent US20240043903A1, “BIOSENSOR USING PET SUBSTRATE, FABRICATION METHOD THEREFOR, AND METHOD FOR INSPECTING SENSITIVITY OF MICROORGANISM TO ANTIBIOTIC BY USING SAME” (priority 2020, published 2024):

System: E. coli (ATCC25922)
Test: Susceptibility test of microorganism to antibiotic by real-time capacitance change on interdigitated-electrode PET biosensor
Assay type: cell-based, Escherichia coli
Details: antibiotic 0.5 to 8 μg/mL; for susceptibility of E. coli (ATCC25922) to antibiotic: 10^5 cells/mL; for capacitance change after treatment with antibiotic: E. coli (ATCC25922) 10^5 cells/mL
Description: The strain used in the experiment was Escherichia coli (ATCC25922), and a standard strain was purchased from ATCC of the United States and used. For the culture of the strain, the Mueller-Hinton media (MH media), which is a culture medium recommended by the US standard CLSI and European standard EUCAST, was purchased from DIFCO and used according to the recommended preparation method in the product manual. After culturing the strain in the MH media for 24 hours, the strain culture medium was adjusted to McFarland OD 0.5, and then diluted 1/100 with the culture medium (strain concentration: 5×10^5 to 10^6 cfu/mL) and treated on the sensor.
The susceptibility of microorganisms to antibiotics was measured by using the sensors fabricated in Examples 1 and 2.

[1] = sensor of Example 1 (PET substrate-Ag electrode), FIG. 4b
[2] = sensor of Example 2 (PET substrate-Au electrode), FIG. 5c

CC1(C)S[C@@H]2[C@H](NC(=O)[C@H](N)c3ccccc3)C(=O)N2[C@H]1C(=O)O [ampicillin]
susceptibility of E. coli (ATCC25922) to antibiotic [1]: tolerance (resistance) | capacitance change after treatment with antibiotic [1]: significantly increased capacitance change | susceptibility of E. coli (ATCC25922) to antibiotic [2]: resistance | capacitance change after treatment with antibiotic [2]: capacitance change significantly increased
